Molecular target: PCP receptors
Assay: Tritiated TCP binding, designated RBS1
Procedure: Tritiated TCP binding, designated RBS1, was carried out essentially as described in J Pharmacol Exp Ther, 238, 739-748 (1986).

SMILES: c1csc(C2(N3CCCCC3)CCCCC2)c1 [TCP, 1-[1-(2-thienyl)cyclohexyl]piperidine]
- IC50: 9 nM

Reference: patent publication US4960815A, “Isotopically-labeled polycyclic amine derivatives” (Warner-Lambert Company, priority 1990, dated 1990)
